Results on one compound are retold here after patent US5942534A, “Photodynamic therapy for the treatment of osteoarthritis” (The General Hospital Corporation, priority 1997, dated 1999).

Holding throughout (type): cell-based, calf
One assay relates to MMP2. Briefly: Gelatin zymography, MMP2 after PDT. Here is the method: (§1) Chondrocytes were harvested by established collagenase digestion techniques. Articular cartilage was aseptically dissected from the femoral condyles and patellas of calf knee joints. […] The resulting cell suspensions were filtered through a cell sieve and washed twice with serum free TCM. The cells were resuspended in the same medium containing 5% heat inactivated fetal calf serum (BioWhittaker, Walkerville, Md.) (FCS-TCM) for seeding. Cell number was determined using a hemocytometer. […] Cells were plated at a density of 1.5×10^6 cells/ml into Falcon 96 well cell culture plates (Becton Dickinson Labware, Franklin Lakes, N.J.) for the cytotoxicity and cell proliferation experiments and into Falcon 6 well cell culture plates for the Photosensitizer uptake studies. Chondrocyte cultures were maintained at 37° C. in a 5% CO2 incubator for 1 week prior to initiation of the photosensitization studies.
(§2) Photofrin® (PF) and Benzoporphyrin Derivative (BPD-MA) were obtained from Quadralogic Technologies (Vancouver, Canada). Chlorin e6 (Ce6) and chloroaluminum phthalocyanine (CASP) were obtained from Ciba Geigy (Basel, Switzerland) and Porphyrin Products (Logan, Utah), respectively. All photosensitizers were added to the chondrocytes in the dark 3 hours prior to light exposure. Photosensitizer stock solutions were prepared immediately prior to each experiment; serial dilutions were prepared using FCS-TCM. All irradiations were done at the appropriate excitation wavelengths for each photosensitizer (BPD-MA 690 nm; Ce6 658 nm; CASP 680 nm; PF 624 nm) using light provided by an argon ion pumped dye laser (Coherent, Palo Alto, Calif.). Following light exposure, control and irradiated cells were maintained for 72 hours prior to the assessment of cellular viability and proliferation rates. Cells were examined daily by light microscopy for morphologic changes.
Aliquots of conditioned medium were mixed with 1 ml of acetone and maintained at -20° C. for 16-20 hours. The aliquots were microcentrifuged at 14,000×g for 15 minutes, the supernatant was removed and the precipitated protein was dried in a vacuum concentrator (Savant, Farmingdale, N.Y.) to remove residual acetone. Conditioned medium samples were mixed with sample buffer (0.4 M Tris pH 6.8, 5% SDS, 20% glycerol, 0.003% bromophenol blue) and applied directly, without boiling or reduction, to 10% acrylamide gels containing 1% gelatin. […] The gels were stained for 1 hour at room temperature in 30% methanol/10% acetic acid containing 0.5% coomassie blue R-250 and destained in the same solution without dye. The gelatinolytic activity of the proteins was evidenced by clear bands against the blue background of the stained gelatin.

The subject of the next assay is MMP9. The assay is described as follows: Gelatin zymography, MMP9 after PDT. The note with it: at PDT parameter levels non-toxic to chondrocytes. Here is the method: Chondrocytes were harvested by established collagenase digestion techniques. Articular cartilage was aseptically dissected from the femoral condyles and patellas of calf knee joints. Condyle surface shavings were finely minced and digested overnight at 37° C. with collagenase 1 mg/ml (Type II; 355 U/mg dry weight (dw)) and hyaluronidase 0.1 mg/ml (1060 USP/NF units/mg dw) (Worthington Biochemicals, Inc., Freehold, N.J.) in Dulbecco's Modified Eagle's Medium (DMEM; Mediatech, Herndon, Va.) supplemented with 20 mM HEPES, 100 U/ml penicillin G, 100 μg/ml ascorbic acid (serum free TCM). The resulting cell suspensions were filtered through a cell sieve and washed twice with serum free TCM. The cells were resuspended in the same medium containing 5% heat inactivated fetal calf serum (BioWhittaker, Walkerville, Md.) (FCS-TCM) for seeding. Cell number was determined using a hemocytometer. Cell viability, which was determined by trypan blue exclusion, was greater than 99% for all preparations. Cells were plated at a density of 1.5×10^6 cells/ml into Falcon 96 well cell culture plates (Becton Dickinson Labware, Franklin Lakes, N.J.) for the cytotoxicity and cell proliferation experiments and into Falcon 6 well cell culture plates for the Photosensitizer uptake studies. […]

In a further assay the test system is articular chondrocytes. The assay is described as follows: Photosensitizer uptake studies. Here is the method:
as §1
Articular chondrocytes were maintained in primary culture for five days after plating. Photosensitizer stocks were serially diluted in FCS-TCM and added to triplicate wells. The cells were incubated in the dark for 3 hours. The photosensitizer-containing FCS-TCM was then removed and the cells were rinsed with 1 ml PBS. To digest the extracellular matrix, the cells were then immersed in 1 ml of a solution of 1 mg/ml collagenase and 0.1 mg/ml hyaluronidase in serum-free TCM. The resulting single cell suspensions were transferred to microfuge tubes and were centrifuged at 3.3×g for 5 minutes. The collagenase solution was removed and the cells were rinsed three times with calcium/magnesium-free PBS. Aliquots were taken for cell counting prior to cell lysis with 1 ml 0.1 N NaOH containing 1% SDS. Cell counting was performed by hemocytometer and Coulter counter. Fluorescent spectra of the cell lysates were obtained using a Spex FluoroMax spectrofluorometer (ISA Instruments, Edison, N.J.) at the appropriate excitation/emission wavelengths for each of the four photosensitizers studied. Fluorescence spectra were corrected for background fluorescence. Relative uptake values were obtained by regression analysis of standard curves of known photosensitizer concentrations. […] Values of uptake at the IC50 are shown in fg/cell. Average protein per cell was calculated from the cell counts and protein concentration determined by the Lowry protein assay.

Assay [1] relates to chondrocytes. The assay is described as follows: Fluorescence of photosensitizers in chondrocytes (confocal microscopy).
Assay [2] relates to chondrocytes. The assay is described as follows: PDT-induced cytotoxicity (MTT cellular viability) in chondrocytes. The settings on record: more than 6 μg/ml Ce6; 5 or 10 J/cm^2 light, 658 nm; 72 hours after irradiation. Here is the method: as §1, §2
Screening studies of toxicity determined the range of doses and light response for each photosensitizer. These predetermined ranges were used for all of the studies described. […] Dosages greater than 50 μg/ml were considered not clinically relevant and a dose range extending to 50 μg/ml was chosen for these studies.
PDT-induced cytotoxicity was determined 72 hours after irradiation. […] MTT is metabolized via mitochondrial dehydrogenase enzymes to a formazan dye which can be measured spectrophotometrically. Cytotoxicity is expressed as the percentage of formazan produced in cells treated with visible light of different wavelengths and intensities relative to control cells (% control). The data are expressed as the mean ±S.E.M. from triplicate experiments.

Some results are limits rather than exact numbers.

In the case of `C=Cc1c(C)c2cc3nc(c(CC(=O)O)c4[nH]c(cc5nc(cc1[nH]2)C(C)=C5CC)c(C)c4C(=O)O)[C@@H](CCC(=O)O)[C@@H]3C` [Ce6, Chlorin e6], in the assay on MMP2 (at PDT parameter levels non-toxic to chondrocytes), the “MMP2 production (in words)” value is listed as “reduced at PDT parameter levels non-toxic to chondrocytes”. Also, the “MMP production (in words)” value with MMP2 (at high drug doses) is reported as “correspondingly greater decreases in MMP production”. In addition, the “reduction of MMP2 production” value in the assay with MMP2 (at the IC50 dose) was greater than 95%. Besides, the “total protein concentration (in words)” value in the assay with MMP2 (zymography studies) was “did not vary with MMP values”. In the assay with MMP9, the “MMP9 production (in words)” value is given as “reduced at PDT parameter levels non-toxic to chondrocytes”. Besides, the “Photons Absorbed at IC50” value in the assay with articular chondrocytes (at IC50) is recorded as 1.44 × 10^8 photons/cell. In addition, the “relative uptake (in words)” value in the assay on articular chondrocytes (at the IC50 concentrations, 3 hour incubation) was “markedly less than for CASP and PF”. Moreover, in the assay on articular chondrocytes (uptake at the IC50, 3 hours incubation in the dark), the “IC50 Uptake” value came to 2.32 fg/cell. Also, the “cellular fluorescence intensity (in words)” value with chondrocytes [1] was “elevated levels of cytoplasmic fluorescence comparable in intensity and distribution to BPD-MA”. The decrease in viability result in the assay with chondrocytes [2] is reported as “approximately 50%”.
